Source: patent US7632855B2, “Pyrazole compounds as HSP90 inhibitors for the treatment of cancer” (Vernalis (Cambridge) Limited, priority 2003, dated 2009)
pIC50: −log10 of the molar value.

These compounds were tested against T1, human full-length HSP90 (Homo sapiens, UniProt P08238) (assay: Fluorescence Polarisation Assay (competitive displacement of probe RBT0045864-FAM from HSP90)). Settings: E. coli expressed human full-length Hsp90 200 nM; probe RBT0045864-FAM 80 nM; read-out: Hsp90 FP IC50.
T1 construct: E. coli expressed human full-length HSP90 protein, purified >95%; made in house; host or cells: E. coli
T1 sequence (P08238 whole entry): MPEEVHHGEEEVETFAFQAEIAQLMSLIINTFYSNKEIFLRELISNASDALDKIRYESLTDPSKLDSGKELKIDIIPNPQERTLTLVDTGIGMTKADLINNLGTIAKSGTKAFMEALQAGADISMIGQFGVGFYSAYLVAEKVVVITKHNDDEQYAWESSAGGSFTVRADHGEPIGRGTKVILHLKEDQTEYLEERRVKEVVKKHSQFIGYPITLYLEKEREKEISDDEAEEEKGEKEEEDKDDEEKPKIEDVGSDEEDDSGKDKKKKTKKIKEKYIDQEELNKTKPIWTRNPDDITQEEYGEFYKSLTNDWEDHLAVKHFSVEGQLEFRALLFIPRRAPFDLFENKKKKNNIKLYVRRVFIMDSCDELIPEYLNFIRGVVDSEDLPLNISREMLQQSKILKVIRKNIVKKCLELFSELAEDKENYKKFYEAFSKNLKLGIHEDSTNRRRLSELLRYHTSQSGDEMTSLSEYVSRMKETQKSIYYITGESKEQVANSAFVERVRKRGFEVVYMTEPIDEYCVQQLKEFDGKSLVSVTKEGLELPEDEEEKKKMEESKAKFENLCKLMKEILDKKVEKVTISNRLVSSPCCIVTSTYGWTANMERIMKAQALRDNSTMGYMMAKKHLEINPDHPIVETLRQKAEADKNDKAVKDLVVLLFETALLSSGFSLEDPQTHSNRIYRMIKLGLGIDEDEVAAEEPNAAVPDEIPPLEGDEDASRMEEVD
Assay type: binding
Description: Fluorescence Polarization Assay
Fluorescence polarization {also known as fluorescence anisotropy} measures the rotation of a fluorescing species in solution, where the larger molecule the more polarized the fluorescence emission. When the fluorophore is excited with polarized light, the emitted light is also polarized. The molecular size is proportional to the polarization of the fluorescence emission. The fluoroscein-labelled probe—RBT0045864-FAM—binds to HSP90 {full-length human, full-length yeast or N-terminal domain HSP90 } and the anisotropy {rotation of the probe-protein complex} is measured.
Compound is added to the assay plate, left to equilibrate and the anisotropy measured again. Any change in anisotropy is due to competitive binding of compound to HSP90, thereby releasing probe.
Chemicals are of the highest purity commercially available and all aqueous solutions are made up in AR water. • 1) Costar 96-well black assay plate #3915 • 2) Assay buffer of (a) 100 mM Tris pH7.4; (b) 20 mM KCl; (c) 6mM MgCl2. Stored at room temperature. • 3) BSA (bovine serum albumen) 10 mg/ml (New England Biolabs # B9001S) • 4) 20 mM RBT0045864 (pyrazole) in 100% DMSO stock concentration. Stored in the dark at RT. Made in-house, Kd^˜[…], depending on the protein used. Working concentration is 200 nM diluted in AR water and stored at 4° C. Final concentration in assay 80 nM. • 5) E. coli expressed human full-length HSP90 protein, purified >95% (see, e.g., Panaretou et al., EMBO J., Vol. 17, pp. 4829-4836, 1998) and stored in 50 μL aliquots at −80° C. Protocol • 1) Add 100 μl 1× buffer to wells 11A and 12A (=FP BLNK) • 2) Prepare assay mix—all reagents are kept on ice with a lid on the bucket as the probe is light-sensitive.
• 3) Aliquot 100 μl assay mix to all other wells • 4) Seal plate and leave in dark at room temp for 20 minutes to equilibrate Compound Dilution Plate—1×3 Dilution Series • 1) In a clear 96-well v-bottom plate—{# VWR 007/008/257} add 10 μl 100% DMSO to wells B1 to H11 • 2) To wells A1 to A11 add 17.5 μl 100% DMSO • 3) Add 2.5 μl cpd to A1. This gives 2.5 mM {50×} stock cpd—assuming cpds 20 mM. • 4) Repeat for wells A2 to A10. Control in columns 11 and 12. • 5) Transfer 5 μl from row A to row B—not column 12. Mix well. • 6) Transfer 5 μl from row B to row C. […] In column 11 {provides standard curve} only add compound B11-H11. Add 2 μl of 100 mM standard cpd to wells B12-H12 {is positive control}
The Z′ factor is calculated from zero controls and positive wells. It typically gives a value of 0.7-0.9.

Compound	pIC50
COc1ccc(-c2c(-c3cc(Cl)c(O)cc3O)n[nH]c2C(=O)N[C@H](C)C(=O)NCCN2CCOCC2)cc1 [Example 16]	> 5.00
COC(=O)CNC(=O)c1[nH]nc(-c2cc(Cl)c(O)cc2O)c1-c1ccc(OC)cc1 [Example 6]	> 5.00
CCNC(=O)[C@@H](C)NC(=O)c1[nH]nc(-c2cc(Cl)c(O)cc2O)c1-c1ccc(OC)cc1 [Example 18]	> 5.00
COc1ccc(-c2c(-c3cc(Cl)c(O)cc3O)n[nH]c2C(=O)N[C@@H](C)C(N)=O)cc1 [Example 10]	> 5.00
COC(=O)[C@@H](C)NC(=O)c1[nH]nc(-c2cc(Cl)c(O)cc2O)c1-c1ccc(OC)cc1 [Example 7]	> 5.00
COc1ccc(-c2c(-c3cc(Cl)c(O)cc3O)n[nH]c2C(=O)N[C@H](C)C(=O)N2CCN(C)CC2)cc1 [Example 12]	> 5.00
COc1ccc(-c2c(-c3cc(Cl)c(O)cc3O)n[nH]c2C(=O)N[C@H](C)C(N)=O)cc1 [Example 9]	> 5.00
COc1ccc(-c2c(-c3cc(Cl)c(O)cc3O)n[nH]c2C(=O)N[C@H](C)C(=O)NC(C)C)cc1 [Example 14]	> 5.00
COc1ccc(-c2c(-c3cc(Cl)c(O)cc3O)n[nH]c2C(=O)NC(C)C(=O)O)cc1 (stereo not shown) [Example 4]	> 5.00
COC(=O)C(C)NC(=O)c1[nH]nc(-c2cc(Cl)c(O)cc2O)c1-c1ccc(OC)cc1 (stereo not shown) [Example 3]	> 5.00
COc1ccc(-c2c(-c3cc(Cl)c(O)cc3O)n[nH]c2C(=O)N[C@H](C)C(=O)NCCN(C)C)cc1 [Example 15]	> 5.00
COC(=O)[C@H](C)NC(=O)c1[nH]nc(-c2cc(Cl)c(O)cc2O)c1-c1ccc(OC)cc1 [Example 8]	> 5.00
CNC(=O)[C@@H](C)NC(=O)c1[nH]nc(-c2cc(Cl)c(O)cc2O)c1-c1ccc(OC)cc1 [Example 13]	> 5.00
